Experimental data published in publication PMC5021059 (Clinical, Cosmetic and Investigational Dermatology, 2016).

Target: T1, 5-α-reductase type I (Homo sapiens, UniProt P18405)
T1 sequence (P18405 1-259): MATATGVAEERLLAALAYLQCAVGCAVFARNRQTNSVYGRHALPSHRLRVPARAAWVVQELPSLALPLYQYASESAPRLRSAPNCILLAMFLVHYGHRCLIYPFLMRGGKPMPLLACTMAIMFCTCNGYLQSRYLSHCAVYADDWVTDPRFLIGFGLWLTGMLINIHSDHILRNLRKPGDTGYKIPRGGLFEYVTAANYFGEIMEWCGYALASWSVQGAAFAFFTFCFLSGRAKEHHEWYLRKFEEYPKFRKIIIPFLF
Assay type: biochemical

IC50	Structure (SMILES)
420 ± 20 nM	CC(C)(C)NC(=O)[C@H]1CC[C@H]2[C@@H]3CC[C@H]4NC(=O)C=C[C@]4(C)[C@H]3CC[C@]12C [finasteride]
6.5±0.33 and 6.8±0.1 μM	CCCCCCCCCCCCCCC[C@@H](O)[C@@H](N)CO (racemic) [sphinganine]
